US20240192195A1, “A MULTIOMIC APPROACH TO MODELING OF GENE REGULATORY NETWORKS IN MULTIPLE MYELOMA” (H. LEE MOFFITT CANCER CENTER AND RESEARCH INSTITUTE, INC., priority 2021, published 2024)

Tested on: multiple myeloma
Assay: Clinical response to Selinexor-based regimens after anti-CD38 monoclonal antibody in the immediate prior line (STOMP, XPORT-MM-028)
Type: in vivo, human
Conditions: Selinexor-based regimen

SMILES: O=C(/C=C\n1cnc(-c2cc(C(F)(F)F)cc(C(F)(F)F)c2)n1)NNc1cnccn1 [Selinexor]
- PFS, anti-CD38 mAb in immediate prior line versus not (STOMP and XPORT-MM-028 trials): statistically significant improvement
- VGPR rate, anti-CD38 mAb in immediate prior line versus not (STOMP trial (xpd and xkd arms)): higher
- ORR and CBR, anti-CD38 mAb in immediate prior line versus not (XPORT-MM-028 trial (xvd)): considerably higher
